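Compound exposure: 48 hours, 5 concentrations, 96-well plates. The concentration for 50% growth inhibition is given as GI50.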 Activity calls are given as the source filed them. Rule as the data show it: active = GI50 up to about 1.1 µM and inactive = higher.
Columns and labels:
Assay in all cases: inhibition of tumour cell growth, NCI panel, 48 h
A549 = test system: A549
CAKI-1 = test system: CAKI-1
HCC 2998 = test system: HCC 2998
HCT-116 = test system: HCT-116
HT-29 = test system: HT-29
K562 = test system: K562
LOX IMVI = test system: LOX IMVI
M14 = test system: M14
OVCAR-4 = test system: OVCAR-4
OVCAR-8 = test system: OVCAR-8
RPMI-8226 = test system: RPMI-8226
RXF 393 = test system: RXF 393
SF-268 = test system: SF-268
SK-MEL-2 = test system: SK-MEL-2
SNB-75 = test system: SNB-75
UACC-257 = test system: UACC-257
DU-145 = test system: DU-145
HCT-15 = test system: HCT-15
NCI/ADR-RES = test system: NCI/ADR-RES

Structure (SMILES) | GI50 (A549) | GI50 (CAKI-1) | GI50 (HCC 2998) | GI50 (HCT-116) | GI50 (HT-29) | GI50 (K562) | GI50 (LOX IMVI) | GI50 (M14) | GI50 (OVCAR-4) | GI50 (OVCAR-8) | GI50 (RPMI-8226) | GI50 (RXF 393) | GI50 (SF-268) | GI50 (SK-MEL-2) | GI50 (SNB-75) | GI50 (UACC-257) | GI50 (DU-145) | GI50 (HCT-15) [µM] | GI50 (NCI/ADR-RES)
CC(C)[Si](OCC1CC(C[C@H]2CC(C[C@H]3C[C@@H](CO[Si](C(C)C)(C(C)C)C(C)C)OC(C)(C)O3)OC(C)(C)O2)OC(C)(C)O1)(C(C)C)C(C)C (some centres undefined) | > 100 µM (inactive) | > 100 µM (inactive) | > 100 µM (inactive) | > 100 µM (inactive) | > 100 µM (inactive) | > 100 µM (inactive) | > 100 µM (inactive) | > 100 µM (inactive) | > 100 µM (inactive) | > 100 µM (inactive) | > 100 µM (inactive) | > 100 µM (inactive) | > 100 µM (inactive) | > 100 µM (inactive) | > 100 µM (inactive) | > 100 µM (inactive) | – | – | –
N#CC1C(=O)Nc2sc(C(=O)c3ccc(Br)cc3)c(N)c2C12CCCCC2 (centres undefined) | 18.1 µM (inactive) | 27.9 µM (inactive) | 22.5 µM (inactive) | 15.8 µM (inactive) | 33.4 µM (inactive) | 23.2 µM (inactive) | 24.1 µM (inactive) | 13.3 µM (inactive) | 18 µM (inactive) | 39.8 µM (inactive) | 19.9 µM (inactive) | 7.96 µM (inactive) | 22.7 µM (inactive) | 14.2 µM (inactive) | 33.1 µM (inactive) | 23.6 µM (inactive) | 23.8 µM (inactive) | 16 | 24.9 µM (inactive)
Cc1ccc(-c2c(C#N)c(-c3ccc(Cl)cc3)c(C#N)c(=O)n2NS(=O)(=O)c2ccc(C)cc2)cc1 | 26.4 µM (inactive) | 34.1 µM (inactive) | 19.5 µM (inactive) | 20.5 µM (inactive) | 37.2 µM (inactive) | 33.9 µM (inactive) | 21.6 µM (inactive) | 19.5 µM (inactive) | 26.6 µM (inactive) | 26.2 µM (inactive) | – | 21 µM (inactive) | 26.3 µM (inactive) | 14 µM (inactive) | 30.1 µM (inactive) | 74 µM (inactive) | – | 28.2 | 18.3 µM (inactive)
COc1ccc(C2ON(c3ccccc3)CC=C2C)cc1 (centres undefined) | 62.2 µM (inactive) | 47.8 µM (inactive) | > 100 µM (inactive) | 66.7 µM (inactive) | 34.4 µM (inactive) | 60.5 µM (inactive) | > 100 µM (inactive) | 80.7 µM (inactive) | 34.5 µM (inactive) | > 100 µM (inactive) | 43.7 µM (inactive) | 34.4 µM (inactive) | > 100 µM (inactive) | 24 µM (inactive) | 94.8 µM (inactive) | 42.5 µM (inactive) | – | 65.9 | –
COc1cccc2c(Nc3ccc(S(=O)(=O)N=C(N)N)cc3)c3ccc([N+](=O)[O-])cc3nc12 | 20.2 µM (inactive) | 5.57 µM (inactive) | 3.23 µM (inactive) | 16.6 µM (inactive) | 32.8 µM (inactive) | 6 µM (inactive) | 11.4 µM (inactive) | 16.3 µM (inactive) | 37.7 µM (inactive) | 15.7 µM (inactive) | 8.05 µM (inactive) | 40.4 µM (inactive) | 5.62 µM (inactive) | 14.3 µM (inactive) | – | 17.4 µM (inactive) | 8.67 µM (inactive) | 30 | > 100 µM (inactive)
COc1ccc2oc(-c3cc4cc(OC)ccc4o3)cc2c1 | > 100 µM (inactive) | > 100 µM (inactive) | > 100 µM (inactive) | – | – | > 100 µM (inactive) | > 100 µM (inactive) | > 100 µM (inactive) | > 100 µM (inactive) | > 100 µM (inactive) | > 100 µM (inactive) | > 100 µM (inactive) | > 100 µM (inactive) | > 100 µM (inactive) | > 100 µM (inactive) | > 100 µM (inactive) | – | > 100 | –
O=C(O)c1ccc([N+](=O)[O-])c2c(=O)c3ccccc3[nH]c12 | > 100 µM (inactive) | > 100 µM (inactive) | > 100 µM (inactive) | > 100 µM (inactive) | > 100 µM (inactive) | > 100 µM (inactive) | > 100 µM (inactive) | > 100 µM (inactive) | > 100 µM (inactive) | > 100 µM (inactive) | > 100 µM (inactive) | > 100 µM (inactive) | > 100 µM (inactive) | > 100 µM (inactive) | 99.5 µM (inactive) | > 100 µM (inactive) | – | > 100 | –
NN/C(=N\S(=O)(=O)c1cc(S(=O)(=O)c2ccccc2)cs1)Nc1ccc(Cl)cc1 | 27.2 µM (inactive) | 34.1 µM (inactive) | – | 20.9 µM (inactive) | 36.1 µM (inactive) | 18.7 µM (inactive) | 21.2 µM (inactive) | 22 µM (inactive) | 20 µM (inactive) | 32.4 µM (inactive) | 22.7 µM (inactive) | 14.9 µM (inactive) | 19.9 µM (inactive) | 16.7 µM (inactive) | 21.9 µM (inactive) | 19 µM (inactive) | 26.1 µM (inactive) | 34.3 | 29.6 µM (inactive)
CN(CC(=O)O)S(=O)(=O)c1ccc(F)cc1 | > 100 µM (inactive) | > 100 µM (inactive) | > 100 µM (inactive) | – | > 100 µM (inactive) | > 100 µM (inactive) | > 100 µM (inactive) | > 100 µM (inactive) | > 100 µM (inactive) | > 100 µM (inactive) | > 100 µM (inactive) | > 100 µM (inactive) | > 100 µM (inactive) | > 100 µM (inactive) | > 100 µM (inactive) | > 100 µM (inactive) | – | > 100 | –
CC1=CC(=O)/C(=C/NC(=S)Nc2ccc(S(N)(=O)=O)cc2)C(=O)O1 | > 100 µM (inactive) | > 100 µM (inactive) | > 100 µM (inactive) | > 100 µM (inactive) | > 100 µM (inactive) | – | > 100 µM (inactive) | > 100 µM (inactive) | > 100 µM (inactive) | > 100 µM (inactive) | – | 83.6 µM (inactive) | > 100 µM (inactive) | > 100 µM (inactive) | > 100 µM (inactive) | > 100 µM (inactive) | > 100 µM (inactive) | > 100 | > 100 µM (inactive)
N#Cc1c(N2CCOCC2)ncn(-c2ccccc2)c1=O | > 100 µM (inactive) | > 100 µM (inactive) | > 100 µM (inactive) | > 100 µM (inactive) | – | > 100 µM (inactive) | > 100 µM (inactive) | > 100 µM (inactive) | – | > 100 µM (inactive) | > 100 µM (inactive) | – | – | > 100 µM (inactive) | > 100 µM (inactive) | > 100 µM (inactive) | > 100 µM (inactive) | > 100 | > 100 µM (inactive)
Cc1ccc2c(C3Cc4ccccc4N3C(=O)/C=C\C(=O)O)c(C)[nH]c2c1 (centres undefined) | > 100 µM (inactive) | 46.5 µM (inactive) | 73.8 µM (inactive) | 53 µM (inactive) | 73.5 µM (inactive) | 22.2 µM (inactive) | 30.6 µM (inactive) | 44.4 µM (inactive) | > 100 µM (inactive) | 30.6 µM (inactive) | 24.4 µM (inactive) | 29.9 µM (inactive) | – | 17.5 µM (inactive) | 35.4 µM (inactive) | 41.3 µM (inactive) | – | 26.9 | –
COc1ccc(-c2cc(=O)c3ccccc3o2)cc1N | 49.9 µM (inactive) | 18.7 µM (inactive) | 38 µM (inactive) | 32.8 µM (inactive) | 32.8 µM (inactive) | 12.2 µM (inactive) | 34.6 µM (inactive) | 27.1 µM (inactive) | 40.9 µM (inactive) | 36.1 µM (inactive) | 44.8 µM (inactive) | 23.6 µM (inactive) | 25.7 µM (inactive) | 37.2 µM (inactive) | 18.7 µM (inactive) | 51.3 µM (inactive) | – | 46.6 | –
COC(=O)N/N=C(/Cc1occc(=O)c1O)C(=O)Nc1ccc([N+](=O)[O-])cc1[N+](=O)[O-] | > 100 µM (inactive) | > 100 µM (inactive) | > 100 µM (inactive) | > 100 µM (inactive) | > 100 µM (inactive) | > 100 µM (inactive) | > 100 µM (inactive) | > 100 µM (inactive) | > 100 µM (inactive) | > 100 µM (inactive) | > 100 µM (inactive) | > 100 µM (inactive) | > 100 µM (inactive) | > 100 µM (inactive) | > 100 µM (inactive) | > 100 µM (inactive) | – | > 100 | –
CC(=O)OC1COC(N2C(=O)C(=O)c3cc(Br)c([N+](=O)[O-])cc32)C(OC(C)=O)C1OC(C)=O (centres undefined) | > 100 µM (inactive) | > 100 µM (inactive) | > 100 µM (inactive) | 77.3 µM (inactive) | > 100 µM (inactive) | 26.2 µM (inactive) | 30.2 µM (inactive) | > 100 µM (inactive) | 42.6 µM (inactive) | 83.6 µM (inactive) | > 100 µM (inactive) | 32.1 µM (inactive) | 59.2 µM (inactive) | > 100 µM (inactive) | 22.5 µM (inactive) | > 100 µM (inactive) | – | > 100 | –
Cc1ccc(NC(=O)CCc2nnc3s/c(=C\c4cccc([N+](=O)[O-])c4)c(=O)n23)cc1 | > 100 µM (inactive) | > 100 µM (inactive) | > 100 µM (inactive) | > 100 µM (inactive) | > 100 µM (inactive) | > 100 µM (inactive) | 48.8 µM (inactive) | > 100 µM (inactive) | > 100 µM (inactive) | > 100 µM (inactive) | > 100 µM (inactive) | > 100 µM (inactive) | > 100 µM (inactive) | > 100 µM (inactive) | 40.6 µM (inactive) | > 100 µM (inactive) | – | > 100 | –

From ChEMBL document CHEMBL1201862, “PubChem BioAssay data set” (2004)
